As usually defined, the solubility is how much of the substance goes into solution per volume. The low end stands for little dissolved substance, the high end for much dissolved substance. Broadly, the IC50 is the concentration that gives 50% inhibition. Read a low IC50 as higher potency. As usually defined, the bioavailability is dose-corrected exposure relative to a reference, in per cent. A lower bioavailability goes with poor availability. Broadly, the half-life is how long it takes for the measured level to halve. Low values mean fast loss, high ones slow loss. Broadly, the clearance is a measure of how efficiently the substance is removed, as volume per time. Lower therefore signals inefficient removal. Usually Vd stands for a proportionality between amount in the body and measured concentration, not a real space. Higher therefore signals wide distribution into tissue. As a reminder, the AUC is concentration integrated over time.

SMILES strings stand for the structures. Values after ≈ are worked out from the molar mass of the structure shown.

Chain of Vascular endothelial growth factor receptor 1 (P17948 whole entry): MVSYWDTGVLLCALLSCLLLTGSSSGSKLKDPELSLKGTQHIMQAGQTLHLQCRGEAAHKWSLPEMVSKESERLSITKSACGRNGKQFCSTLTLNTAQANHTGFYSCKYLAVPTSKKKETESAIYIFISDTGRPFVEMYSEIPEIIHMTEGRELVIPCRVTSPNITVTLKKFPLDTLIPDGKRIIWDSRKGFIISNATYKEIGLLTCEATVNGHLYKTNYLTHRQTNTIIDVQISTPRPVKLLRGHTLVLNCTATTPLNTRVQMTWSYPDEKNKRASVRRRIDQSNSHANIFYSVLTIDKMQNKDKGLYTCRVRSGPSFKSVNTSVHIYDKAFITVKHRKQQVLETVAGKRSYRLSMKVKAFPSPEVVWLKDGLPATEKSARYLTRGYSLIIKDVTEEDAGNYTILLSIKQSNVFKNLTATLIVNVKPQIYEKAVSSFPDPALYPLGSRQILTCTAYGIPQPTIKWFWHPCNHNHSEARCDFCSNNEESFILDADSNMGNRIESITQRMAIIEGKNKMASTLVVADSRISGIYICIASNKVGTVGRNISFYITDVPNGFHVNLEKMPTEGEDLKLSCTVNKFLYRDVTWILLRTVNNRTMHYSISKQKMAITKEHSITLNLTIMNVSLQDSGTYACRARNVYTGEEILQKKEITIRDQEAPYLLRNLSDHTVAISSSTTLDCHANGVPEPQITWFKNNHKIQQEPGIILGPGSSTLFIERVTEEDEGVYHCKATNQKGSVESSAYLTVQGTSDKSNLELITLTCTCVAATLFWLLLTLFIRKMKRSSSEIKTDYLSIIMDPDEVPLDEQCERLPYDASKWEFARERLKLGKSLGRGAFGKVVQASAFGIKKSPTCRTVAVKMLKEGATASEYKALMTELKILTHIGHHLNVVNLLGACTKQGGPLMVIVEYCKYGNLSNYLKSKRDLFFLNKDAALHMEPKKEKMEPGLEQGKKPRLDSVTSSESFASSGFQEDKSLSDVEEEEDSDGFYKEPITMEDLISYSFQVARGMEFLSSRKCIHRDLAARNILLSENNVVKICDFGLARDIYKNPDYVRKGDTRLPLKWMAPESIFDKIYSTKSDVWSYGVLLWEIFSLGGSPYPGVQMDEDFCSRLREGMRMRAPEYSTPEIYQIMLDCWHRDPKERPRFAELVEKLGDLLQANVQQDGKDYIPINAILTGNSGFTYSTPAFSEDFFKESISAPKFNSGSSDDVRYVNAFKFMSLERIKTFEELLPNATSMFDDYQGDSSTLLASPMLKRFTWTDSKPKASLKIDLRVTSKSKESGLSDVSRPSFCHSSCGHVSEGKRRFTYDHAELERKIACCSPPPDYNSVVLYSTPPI
Chain of Mast/stem cell growth factor receptor Kit (P10721 whole entry): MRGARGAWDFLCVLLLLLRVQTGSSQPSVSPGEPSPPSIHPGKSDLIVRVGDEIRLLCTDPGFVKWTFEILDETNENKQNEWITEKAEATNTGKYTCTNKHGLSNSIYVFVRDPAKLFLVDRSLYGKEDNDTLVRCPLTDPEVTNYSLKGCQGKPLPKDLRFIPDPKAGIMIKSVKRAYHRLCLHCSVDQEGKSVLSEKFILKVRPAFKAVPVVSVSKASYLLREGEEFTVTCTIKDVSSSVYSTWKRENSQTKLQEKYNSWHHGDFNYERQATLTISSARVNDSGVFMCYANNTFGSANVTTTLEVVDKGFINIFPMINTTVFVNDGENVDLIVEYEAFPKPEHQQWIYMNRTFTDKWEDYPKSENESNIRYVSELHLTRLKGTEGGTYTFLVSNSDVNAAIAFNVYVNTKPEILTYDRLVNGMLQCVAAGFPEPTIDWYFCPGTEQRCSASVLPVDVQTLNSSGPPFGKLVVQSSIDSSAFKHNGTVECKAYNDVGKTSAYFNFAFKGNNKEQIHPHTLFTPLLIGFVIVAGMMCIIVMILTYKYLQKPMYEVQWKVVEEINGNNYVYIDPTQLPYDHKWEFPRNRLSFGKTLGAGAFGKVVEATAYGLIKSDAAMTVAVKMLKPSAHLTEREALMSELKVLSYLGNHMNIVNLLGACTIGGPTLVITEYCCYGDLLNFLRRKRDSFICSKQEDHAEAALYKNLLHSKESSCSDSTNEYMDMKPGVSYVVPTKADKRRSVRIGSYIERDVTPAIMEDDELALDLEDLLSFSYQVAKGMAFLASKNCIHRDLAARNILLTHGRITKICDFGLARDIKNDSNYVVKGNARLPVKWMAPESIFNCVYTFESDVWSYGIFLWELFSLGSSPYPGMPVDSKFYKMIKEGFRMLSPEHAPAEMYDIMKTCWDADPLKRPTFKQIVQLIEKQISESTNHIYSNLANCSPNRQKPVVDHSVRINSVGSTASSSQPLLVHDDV
Chain of Tyrosine-protein kinase Fyn (P06241 whole entry): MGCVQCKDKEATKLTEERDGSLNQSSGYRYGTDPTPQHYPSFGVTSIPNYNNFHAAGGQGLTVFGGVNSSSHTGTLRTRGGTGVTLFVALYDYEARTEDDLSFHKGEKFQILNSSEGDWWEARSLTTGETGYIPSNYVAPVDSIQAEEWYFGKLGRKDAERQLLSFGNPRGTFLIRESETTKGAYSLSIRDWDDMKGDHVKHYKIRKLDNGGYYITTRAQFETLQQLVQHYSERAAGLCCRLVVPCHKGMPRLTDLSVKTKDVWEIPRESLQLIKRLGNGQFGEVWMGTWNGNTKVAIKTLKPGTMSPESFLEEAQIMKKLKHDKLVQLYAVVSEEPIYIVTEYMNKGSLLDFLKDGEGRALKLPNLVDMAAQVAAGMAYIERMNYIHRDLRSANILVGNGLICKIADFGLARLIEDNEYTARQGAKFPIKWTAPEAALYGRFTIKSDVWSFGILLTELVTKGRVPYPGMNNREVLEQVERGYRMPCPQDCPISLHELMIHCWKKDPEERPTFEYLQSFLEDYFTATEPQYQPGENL

Test system in the first data set: not listed separately
Nature of the data set: Aqueous solubility at pH 7.2. The class given is physicochemical. Conditions: buffer.
As to `Cc1ccc(F)c(NC(=O)Nc2ccc(-c3cncc4[nH]nc(N)c34)cc2)c1`, the solubility is 5.8 µM (≈ 2.18 µg/mL).
Still for that read-out and setting: the figure for `Cc1ccc(F)c(NC(=O)Nc2ccc(-c3nccc4[nH]nc(N)c34)cc2)c1` is 9.5 µM (≈ 3.58 µg/mL); for `Cc1ccc(F)c(NC(=O)Nc2ccc(-c3cccc4[nH]nc(N)c34)cc2)c1` [LINIFANIB] it is 0.07 µM (≈ 0.0263 µg/mL).
On the same count and under the same terms, the figure for `Nc1n[nH]c2nccc(-c3ccc(NC(=O)Nc4cccc(Cl)c4)cc3)c12` is 1.6 µM (≈ 0.606 µg/mL).

A further data set addresses Vascular endothelial growth factor receptor 1 (Homo sapiens, UniProt P17948). Kind of data set: Inhibition of FLT1 by HTRF assay.
Settings: not given
For the molecule `Nc1n[nH]c2nccc(-c3ccc(NC(=O)Nc4cccc(C(F)(F)F)c4)cc3)c12`, the IC50 stood at 5 nM.

Test system in a further data set: not listed separately
Kind of data set: Oral bioavailability in mouse at 10 mg/kg. The class given is ADME, organism-based. Conditions: in vivo.
In turn, `Cc1cc(C)cc(NC(=O)Nc2ccc(-c3nccc4[nH]nc(N)c34)cc2)c1` gave a bioavailability of 9%.
The same measure, in the same setting: in the case of `Cc1ccc(F)c(NC(=O)Nc2ccc(-c3cncc4c3c(N)nn4C)cc2)c1` it was 81%; in that of `Cc1ccc(F)c(NC(=O)Nc2ccc(-c3ccnc4[nH]nc(N)c34)cc2)c1`, 62%.
On the same count and under the same terms, in the case of `Cc1cccc(NC(=O)Nc2ccc(-c3cncc4c3c(N)nn4C)cc2)c1` it was 71%.

Another data set concerns the target Tyrosine-protein kinase Fyn (Homo sapiens, UniProt P06241). Kind of data set: Inhibition of FYN by HTRF assay.
Settings: not given
(In general: In TR-FRET formats the signal depends on donor and acceptor labels being close together.)
Consider `Nc1n[nH]c2nccc(-c3ccc(NC(=O)Nc4cccc(C(F)(F)F)c4)cc3)c12`, for which the IC50 was 11800 nM.

Test system in the next data set: not listed separately
Nature of the data set: Half life in mouse at 3 mg/kg, iv. Format: ADME, organism-based. On the set-up: dose 3 mg/kg, route intravenous. Particulars: in vivo.
As for `Cc1cc(C)cc(NC(=O)Nc2ccc(-c3nccc4[nH]nc(N)c34)cc2)c1`, the half-life was 27 min.
On the same count and under the same terms, in the case of `Cc1ccc(F)c(NC(=O)Nc2ccc(-c3cncc4c3c(N)nn4C)cc2)c1` it was 90 min.
Regarding `Cc1ccc(F)c(NC(=O)Nc2ccc(-c3ccnc4[nH]nc(N)c34)cc2)c1`, the half-life was 60 min.
`Cc1cccc(NC(=O)Nc2ccc(-c3cncc4c3c(N)nn4C)cc2)c1` showed a half-life of 36 min.

A further data set concerns the target Mast/stem cell growth factor receptor Kit (Homo sapiens, UniProt P10721). Nature of the data set: Inhibition of cKit by HTRF assay.
Settings: not given
For the molecule `Nc1n[nH]c2nccc(-c3ccc(NC(=O)Nc4cccc(C(F)(F)F)c4)cc3)c12`, the IC50 was determined as 7 nM.

Test system in another data set: not listed separately
Kind of data set: Clearance in mouse at 3 mg/kg, iv. Further details: dose 3 mg/kg, route intravenous. Format: ADME, organism-based. Conditions: in vivo.
In the case of `Cc1cc(C)cc(NC(=O)Nc2ccc(-c3nccc4[nH]nc(N)c34)cc2)c1`, the clearance was determined as 43.7 mL/min/kg.
On the same count and under the same terms, in the case of `Cc1ccc(F)c(NC(=O)Nc2ccc(-c3cncc4c3c(N)nn4C)cc2)c1` it was 11.5 mL/min/kg; in that of `Cc1ccc(F)c(NC(=O)Nc2ccc(-c3ccnc4[nH]nc(N)c34)cc2)c1`, 17.3 mL/min/kg; in that of `Cc1cccc(NC(=O)Nc2ccc(-c3cncc4c3c(N)nn4C)cc2)c1`, 12.7 mL/min/kg.

Test system in another data set: not listed separately
Kind of data set: Volume of distribution in mouse at 3 mg/kg, iv. Format: ADME, organism-based. Particulars: in vivo. On the set-up: dose 3 mg/kg, route intravenous.
For `Cc1cc(C)cc(NC(=O)Nc2ccc(-c3nccc4[nH]nc(N)c34)cc2)c1`, the Vd was 1.71 L/kg.
Same read-out and setting: in the case of `Cc1ccc(F)c(NC(=O)Nc2ccc(-c3cncc4c3c(N)nn4C)cc2)c1` it was 1.48 L/kg; in that of `Cc1ccc(F)c(NC(=O)Nc2ccc(-c3ccnc4[nH]nc(N)c34)cc2)c1`, 1.5 L/kg.
The molecule `Cc1cccc(NC(=O)Nc2ccc(-c3cncc4c3c(N)nn4C)cc2)c1` showed a Vd of 0.66 L/kg.

In another data set the target is T1, Vascular endothelial growth factor receptor 2 (Homo sapiens, UniProt P35968).
T1 sequence (P35968 whole entry): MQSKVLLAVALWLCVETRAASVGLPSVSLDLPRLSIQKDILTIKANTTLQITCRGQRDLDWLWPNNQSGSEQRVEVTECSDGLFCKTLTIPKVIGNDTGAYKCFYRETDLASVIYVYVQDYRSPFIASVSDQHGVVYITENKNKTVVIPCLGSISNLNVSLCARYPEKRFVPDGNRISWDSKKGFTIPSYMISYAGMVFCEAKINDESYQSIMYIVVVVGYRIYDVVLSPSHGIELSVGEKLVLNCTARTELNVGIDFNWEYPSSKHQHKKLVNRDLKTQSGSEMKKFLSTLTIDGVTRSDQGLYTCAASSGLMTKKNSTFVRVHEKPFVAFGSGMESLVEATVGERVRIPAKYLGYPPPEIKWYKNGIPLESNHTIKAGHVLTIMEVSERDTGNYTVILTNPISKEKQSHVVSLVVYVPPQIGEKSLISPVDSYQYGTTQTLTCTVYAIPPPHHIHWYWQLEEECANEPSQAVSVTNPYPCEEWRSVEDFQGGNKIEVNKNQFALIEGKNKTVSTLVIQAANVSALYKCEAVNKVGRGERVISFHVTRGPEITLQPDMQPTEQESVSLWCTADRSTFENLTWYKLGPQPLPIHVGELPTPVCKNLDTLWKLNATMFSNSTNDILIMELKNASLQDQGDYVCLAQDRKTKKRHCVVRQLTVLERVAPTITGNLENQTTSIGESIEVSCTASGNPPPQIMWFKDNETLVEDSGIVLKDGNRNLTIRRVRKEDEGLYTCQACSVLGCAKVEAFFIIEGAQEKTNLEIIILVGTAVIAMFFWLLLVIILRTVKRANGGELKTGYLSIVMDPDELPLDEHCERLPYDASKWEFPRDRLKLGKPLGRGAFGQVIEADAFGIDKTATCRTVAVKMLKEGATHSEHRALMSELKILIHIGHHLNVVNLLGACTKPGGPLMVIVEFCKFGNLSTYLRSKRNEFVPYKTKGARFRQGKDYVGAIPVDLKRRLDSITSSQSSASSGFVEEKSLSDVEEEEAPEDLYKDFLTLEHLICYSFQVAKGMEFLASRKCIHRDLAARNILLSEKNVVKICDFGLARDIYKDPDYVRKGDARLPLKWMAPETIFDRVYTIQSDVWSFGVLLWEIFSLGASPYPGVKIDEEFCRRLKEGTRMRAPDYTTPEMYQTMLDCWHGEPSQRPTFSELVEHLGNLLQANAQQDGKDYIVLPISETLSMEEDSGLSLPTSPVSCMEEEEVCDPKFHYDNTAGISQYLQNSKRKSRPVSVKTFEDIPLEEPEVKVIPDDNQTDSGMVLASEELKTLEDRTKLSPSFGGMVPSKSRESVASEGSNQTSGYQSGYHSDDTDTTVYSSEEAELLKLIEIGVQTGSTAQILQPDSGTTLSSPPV
Settings: not given
In the case of `Cc1ccc(F)c(NC(=O)Nc2ccc(-c3cncc4c3c(N)nn4C)cc2)c1`, the IC50 was determined as 3 nM.
Still for that read-out and setting: in the case of `Cc1ccccc1NC(=O)Nc1ccc(-c2ccnc3[nH]nc(N)c23)cc1` it was 2.2 nM.

Another data set deals with Macrophage colony-stimulating factor 1 receptor (Homo sapiens, UniProt P07333). Nature of the data set: Inhibition of CSF1R by HTRF assay.
Settings: not given
In turn, `Nc1n[nH]c2nccc(-c3ccc(NC(=O)Nc4cccc(C(F)(F)F)c4)cc3)c12` returned an IC50 of 3 nM.

Another data set deals with Mus musculus. Nature of the data set: Inhibition of estradiol-induced uterine edema in mouse at 10 mg/kg, po. Particulars: read-out: Inhibition.
For `Cc1cc(C)cc(NC(=O)Nc2ccc(-c3nccc4[nH]nc(N)c34)cc2)c1`, the inhibition in vivo at 10 mg/kg was less than 5%.
In the case of `Cc1cc(NC(=O)Nc2ccc(-c3cncc4[nH]nc(N)c34)cc2)ccc1F`, the inhibition in vivo at 10 mg/kg amounted to 19%.
On the same count and under the same terms, in the case of `Cc1ccc(F)c(NC(=O)Nc2ccc(-c3cncc4c3c(N)nn4C)cc2)c1` it was 72%; in that of `Nc1n[nH]c2cncc(-c3ccc(NC(=O)Nc4cccc(Cl)c4)cc3)c12`, less than 5%.
On to `Cc1ccccc1NC(=O)Nc1ccc(-c2ccnc3[nH]nc(N)c23)cc1`, for which the inhibition in vivo at 10 mg/kg was less than 5%.
For `Cc1cccc(NC(=O)Nc2ccc(-c3cncc4[nH]nc(N)c34)cc2)c1`, the inhibition in vivo at 10 mg/kg came to 50%.
Same read-out and setting: the figure for `Cc1cc(NC(=O)Nc2ccc(-c3ccnc4[nH]nc(N)c34)cc2)ccc1F` is 108%; for `Nc1n[nH]c2ccnc(-c3ccc(NC(=O)Nc4cccc(C(F)(F)F)c4)cc3)c12` it is less than 5%.
The same measure, in the same setting: in the case of `Cn1nc(N)c2c(-c3ccc(NC(=O)Nc4cccc(Cl)c4)cc3)cncc21` it was 52%; in that of `Cc1cc(NC(=O)Nc2ccc(-c3nccc4[nH]nc(N)c34)cc2)ccc1F`, less than 5%.
The same measure, in the same setting: in the case of `Cc1ccc(F)c(NC(=O)Nc2ccc(-c3ccnc4[nH]nc(N)c34)cc2)c1` it was 66%; in that of `Nc1n[nH]c2nccc(-c3ccc(NC(=O)Nc4ccc(F)c(Cl)c4)cc3)c12`, 55%.
Take `Nc1n[nH]c2cncc(-c3ccc(NC(=O)Nc4cc(C(F)(F)F)ccc4F)cc3)c12`: the inhibition in vivo at 10 mg/kg was 35%.
For `Cc1cc(C)cc(NC(=O)Nc2ccc(-c3ccnc4[nH]nc(N)c34)cc2)c1`, the inhibition in vivo at 10 mg/kg amounted to 77%.
The same measure, in the same setting: in the case of `Nc1n[nH]c2nccc(-c3ccc(NC(=O)Nc4ccccc4)cc3)c12` it was 39%.
As for `Cc1ccc(F)c(NC(=O)Nc2ccc(-c3cncc4[nH]nc(N)c34)cc2)c1`, the inhibition in vivo at 10 mg/kg is 98%.
As to `Cc1ccc(NC(=O)Nc2ccc(-c3ccnc4[nH]nc(N)c34)cc2)cc1`, the inhibition in vivo at 10 mg/kg was less than 5%.
The same measure, in the same setting: in the case of `Cc1ccc(F)c(NC(=O)Nc2ccc(-c3nccc4[nH]nc(N)c34)cc2)c1` it was less than 5%; in that of `Cn1nc(N)c2c(-c3ccc(NC(=O)Nc4ccc(F)c(C(F)(F)F)c4)cc3)cncc21`, 59%; in that of `Cc1cccc(NC(=O)Nc2ccc(-c3cncc4c3c(N)nn4C)cc2)c1`, 79%.
As for `Nc1n[nH]c2nccc(-c3ccc(NC(=O)Nc4cccc(Cl)c4)cc3)c12`, the inhibition in vivo at 10 mg/kg was determined as 23%.

A further data set concerns the target T1, Vascular endothelial growth factor receptor 2.
Settings: not given
The source holds these as a separate data set.
As for `Cc1ccc(F)c(NC(=O)Nc2ccc(-c3cncc4c3c(N)nn4C)cc2)c1`, the IC50 amounted to 7.7 nM.
`Cc1ccccc1NC(=O)Nc1ccc(-c2ccnc3[nH]nc(N)c23)cc1` had a half-maximal inhibitory concentration (IC50) of 35 nM.

Test system in another data set: not listed separately
Kind of data set: AUC in mouse at 10 mg/kg, po. Format: ADME, organism-based. Further details: dose 10 mg/kg, route oral. Particulars: plasma.
Regarding `Cc1cc(C)cc(NC(=O)Nc2ccc(-c3nccc4[nH]nc(N)c34)cc2)c1`, the AUC is 0.89 µM·h.
Regarding `Cc1ccc(F)c(NC(=O)Nc2ccc(-c3cncc4c3c(N)nn4C)cc2)c1`, the AUC worked out at 30.2 µM·h.
Same read-out and setting: in the case of `Cc1ccc(F)c(NC(=O)Nc2ccc(-c3ccnc4[nH]nc(N)c34)cc2)c1` it was 15.7 µM·h; in that of `Cc1cccc(NC(=O)Nc2ccc(-c3cncc4c3c(N)nn4C)cc2)c1`, 25 µM·h.

For another data set, the target named is T2, Receptor-type tyrosine-protein kinase FLT3 (Homo sapiens, UniProt P36888).
T2 sequence (P36888 whole entry): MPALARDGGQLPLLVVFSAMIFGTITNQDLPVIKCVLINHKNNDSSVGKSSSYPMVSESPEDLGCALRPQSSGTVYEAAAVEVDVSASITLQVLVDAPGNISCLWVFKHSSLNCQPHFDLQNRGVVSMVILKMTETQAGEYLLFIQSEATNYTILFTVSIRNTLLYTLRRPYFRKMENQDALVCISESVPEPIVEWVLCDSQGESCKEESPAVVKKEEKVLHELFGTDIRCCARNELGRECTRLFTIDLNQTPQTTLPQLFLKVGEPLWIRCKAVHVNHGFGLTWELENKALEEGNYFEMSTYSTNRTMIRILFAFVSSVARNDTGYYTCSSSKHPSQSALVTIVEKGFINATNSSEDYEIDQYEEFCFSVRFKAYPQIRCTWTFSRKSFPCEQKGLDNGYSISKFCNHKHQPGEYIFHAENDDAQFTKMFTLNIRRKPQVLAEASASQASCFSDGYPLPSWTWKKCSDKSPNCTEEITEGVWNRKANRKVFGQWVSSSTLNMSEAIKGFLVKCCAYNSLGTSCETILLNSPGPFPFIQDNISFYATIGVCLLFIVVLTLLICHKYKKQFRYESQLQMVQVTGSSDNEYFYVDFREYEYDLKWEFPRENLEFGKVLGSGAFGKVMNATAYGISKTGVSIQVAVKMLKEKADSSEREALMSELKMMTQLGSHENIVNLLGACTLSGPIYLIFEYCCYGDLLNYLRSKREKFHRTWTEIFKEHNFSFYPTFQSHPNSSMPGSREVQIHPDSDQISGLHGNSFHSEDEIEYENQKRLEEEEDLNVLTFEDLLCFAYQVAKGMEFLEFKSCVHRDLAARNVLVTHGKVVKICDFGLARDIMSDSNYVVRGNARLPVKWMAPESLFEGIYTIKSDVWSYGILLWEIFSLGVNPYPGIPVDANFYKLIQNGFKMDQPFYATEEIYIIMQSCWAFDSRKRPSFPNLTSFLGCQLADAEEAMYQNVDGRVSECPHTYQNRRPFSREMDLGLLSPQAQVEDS
Kind of data set: Inhibition of FLT3 by HTRF assay.
Settings: not given
For the molecule `Nc1n[nH]c2nccc(-c3ccc(NC(=O)Nc4cccc(C(F)(F)F)c4)cc3)c12`, half-maximal inhibition (IC50) was put at 2 nM.

Values taken from ChEMBL document CHEMBL1142252, “Identification of aminopyrazolopyridine ureas as potent VEGFR/PDGFR multitargeted kinase inhibitors” (Bioorg Med Chem Lett, 2008).
